Where two headings read alike, the source gives them in different places.
Key:
[1] = Stability of the seven analytes in rat plasma (method validation); type: in vitro ADME; details: n = 6; for Short-Term RSD: auto-sampler vials for 24 h; for Freeze-Thaw RSD: three freeze–thaw cycles; for Long-Term RSD: −20 °C for 30 days
Protocol: Stability The short-term and long-term stability of seven analytes in rat plasma in auto-sampler vials for 24 h, at −20 °C for 30 days and after three freeze–thaw cycles was assessed, and also carried out in six replicates samples at three QC levels (low, medium and high).
Stability: The analytes would be considered stable when the accuracy bias was within ±15% of the nominal concentrations (or ±20% for LLOQ).

[2] = Pharmacokinetic study in rats after oral administration of mix standard solution (UPLC-QqQ-MS of plasma); type: in vivo, Sprague-Dawley rats
Protocol: Then, 300 μL acetonitrile for protein precipitation were added. For the incurred samples, 10 µL of methanol (volume of the corresponding standard solution for calibration curve) and 90 μL of samples with 300 μL acetonitrile were mixed, the mixture was then vortex-extracted for 2 min, and centrifuged for 10 min at 15,000 rpm (4 °C). The supernatant was transferred to a new tube and evaporated under a gentle stream of nitrogen to dryness. The residue was reconstituted with 80 μL of initial mobile phase, vortex-mixed for 1 min and centrifuged at 15,000 rpm for 5 min.
The Chromatographic UPLC-QqQ-MS procedure of pharmacokinetics study was performed using ACQUITY UPLC (Waters, Milford, MA, USA) and SCIEX SelexION Triple Quad™ 5500 System (AB Sciex, Framingham, MA, USA) equipped with a heated electrospray ionization source (ESI) interface, separation was achieved using a Waters BEH C18 column (2.1 mm × 100 mm, 1.7 μm) which was protected by an online filter, the mobile phase was at a flow rate of 0.5 mL/min, consisted of aqueous solvent A: water–acetic acid (1000:1, v/v) and organic phase solvent B: acetonitrile. A 10-min binary gradient elution was performed for the separation, and the consecutive program was as follows: an isocratic elution of 5% solvent B to equilibrate the column, then followed by a linear gradient elution: 0–2.5 min, 5–27% B; 2.5–3.1 min, 27–36% B; 3.1–4.1 min, 36–57% B; 4.1–4.8 min, 57–84% B; 4.8–5.8 min, 84–100% B; 5.8–7 min, 100–100% B; 7–8 min, 100–5% B; and the re-equilibration time of gradient elution was 2 min. The column and auto-sampler tray temperature were maintained constantly at 45 °C and 4 °C, respectively. The injection volume was 10 μL. The electrospray ionization source was operated in positive mode. Quantitation was performed by schedule multiple reactions monitoring (sMRM). In the positive mode, the tandem mass spectrometry (MS/MS) typical instrumental conditions were: ion spray voltage 5.5 kV, ion source gas 150 psi, ion source gas 250 psi, temperature 500 °C, and curtain gas 38 psi. Data acquisition and processing were performed using Analyst Software (AB Sciex, Corp., Framingham, MA, USA).
The developed UPLC-QqQ-MS method was applied to a pharmacokinetic study of seven analytes in rat plasma. Male healthy adult Sprague-Dawley rats (n = 6, 200 ± 20 g body weight) were supplied by Shanghai Jiao Tong University Laboratory Animal Centre (Shanghai, China). Animals were acclimatized in an environmental controlled breeding room with standard laboratory food and water for one week prior to the experiments. All the rats were fasted for 12 h, with free access to water prior to the experiments, animal welfare and experimental procedures conformed to guidance for the care and use of laboratory animals, similarly the ethical regulations of SJTU.
Then immediately centrifuged at 4000 rpm for 5 minutes, plasma was transferred into another via and stored at −80 °C until assay.
The plasma concentrations of seven analytes at different time points are described as the mean ± s.d. The concentration versus time curve was plotted. Compartmental model was chosen to calculate all the related pharmacokinetic parameters including Cmax (ng/mL), Tmax (h), AUC0−∞ (ng·h/mL), CL/F (L/h.kg), T1/2α (h) and T1/2β (h) were calculated by Kinetica4.4 software (Thermo Fisher Scientific™, Corp., Waltham, MA, USA), and performed with GraphPad 6 (GraphPad Software, Inc., La Jolla, CA, USA). We also use the area under the plasma concentration–time curve from zero to infinity (AUC0−∞) as the weighting factor to make an integrated pharmacokinetic curve. […]

[3] = cited from earlier work
[4] = high QC level (80.0 or 150 ng/mL)
[5] = low QC level (0.25, 0.50 or 1.50 ng/mL)
[6] = medium QC level (1.50, 3.50 or 15.0 ng/mL)
[7] = after oral administration (10 mg/kg)
[8] = male, Sprague-Dawley, rat, in vivo, po, 10 mg/kg, rats, oral 10 mg/kg mix standard in 0.5% CMC-Na, n = 6, Mean ± S.D., read-out: Tmax
[9] = male, Sprague-Dawley, rat, in vivo, Table 8, mean, after oral administration (10 mg/kg), read-out: AUC0−∞
[10] = male, Sprague-Dawley, rat, in vivo, rats, oral 10 mg/kg mix standard in 0.5% CMC-Na, n = 6, Mean ± S.D., compartmental model, read-out: Cmax
[11] = male, Sprague-Dawley, rat, in vivo, rats, oral 10 mg/kg mix standard in 0.5% CMC-Na, n = 6, Mean ± S.D., read-out: CL/F (converted)
[12] = male, Sprague-Dawley, rat, in vivo, rats, oral 10 mg/kg mix standard in 0.5% CMC-Na, n = 6, Mean ± S.D., read-out: T1/2β (converted)
[13] = rats, oral 10 mg/kg mix standard in 0.5% CMC-Na, n = 6, Mean ± S.D., 10 mg/kg
[14] = male, Sprague-Dawley, rat, in vivo, po, 10 mg/kg

Row | Short-Term RSD [1, 4] [%] | Short-Term RSD [1, 5] [%] | Short-Term RSD [1, 6] [%] | Freeze-Thaw RSD [1, 4] [%] | Freeze-Thaw RSD [1, 5] [%] | Freeze-Thaw RSD [1, 6] [%] | Long-Term RSD [1, 4] [%] | Long-Term RSD [1, 5] [%] | Long-Term RSD [1, 6] [%] | AUC(0-inf) [2, 14] [µg·h/mL] | CL/F [2, 14] [L/h/kg] | Cmax [2, 14] [µg/mL] | T1/2α [2, 14] [h] | Tmax [2, 14] [h] | half-life [2, 14] [h] | weighting coefficient ωj (AUC0−∞ of single analyte / total AUC0−∞ of analytes) [2, 14] | Compound | weighting coefficient ωj (AUC0−∞ of single analyte / total AUC0−∞ of analytes) [2, 7] | Tmax [2, 8] [h] | AUC(0-inf) [2, 9] [µg·h/mL] | Cmax [2, 10] [µg/mL] | further results
1 | 1.01 | 2.75 | 1.40 | 9.64 | 4.77 | 3.73 | 1.46 | 3.70 | 3.11 |  |  |  |  |  |  |  | Cc1cc(=O)c2c(O)c3c(cc2o1)OC(C)(C)[C@@H](O[C@@H]1O[C@H](CO)[C@@H](O)[C@H](O)[C@H]1O)C3 [Sec-O-Glucosylhamaudol] |  |  |  |  | T1/2α ([2]; rat, in vivo, po, 10 mg/kg): 1.10 ± 0.26 h; T1/2β ([2]; rat, in vivo, po, 10 mg/kg): 2.4 ± 1.2 min; weighting coefficient ωj (AUC0−∞ of single analyte / total AUC0−∞ of analytes) ([2]; rat, in vivo, po, 10 mg/kg): 0.379
2 | 4.38 | 4.18 | 2.20 | 12.92 | 8.29 | 6.08 | 12.67 | 4.13 | 10.35 | 0.0115 | 500 | 0.0063 ± 0.0025 | 0.27 ± 0.10 | 0.3 ± 0.1 | 1.09 ± 0.36 | 0.016 | COc1ccc(-c2coc3cc(O)ccc3c2=O)cc1O [Calycosin] |  |  |  |  | 
3 |  |  |  |  |  |  |  |  |  | 0.0179 | 589 | 0.0084 ± 0.0024 | 0.04 ± 0.01 | 0.1 ± 0.1 | 4.1 ± 1.56 | 0.025 | C=C1CCC[C@]2(C)C[C@@H]3OC(=O)C(C)=C3C[C@@H]12 [Atractylenolide II] |  |  |  |  | biliary excretion [3]: rapid; intestinal absorption [3]: poor
4 | 1.02 | 3.89 | 1.35 | 8.53 | 2.40 | 1.40 | 2.41 | 3.99 | 7.52 | 0.0608 | 168 | 0.05 ± 0.0076 | 0.16 ± 0.01 | 0.2 ± 0.01 | 2.4 ± 1.1 | 0.085 | COc1c2c(cc3oc(C)cc(=O)c13)OC(C(C)(C)OC1OC(CO)C(O)C(O)C1O)C2 [4-O-beta-D-glucosyl-5-O-methylvisamminol] |  |  |  |  | 

Row | Compound | Short-Term RSD [1, 4] [%] | Short-Term RSD [1, 5] [%] | Short-Term RSD [1, 6] [%] | Freeze-Thaw RSD [1, 4] [%] | Freeze-Thaw RSD [1, 5] [%] | Freeze-Thaw RSD [1, 6] [%] | Long-Term RSD [1, 4] [%] | Long-Term RSD [1, 5] [%] | Long-Term RSD [1, 6] [%] | AUC(0-inf) [2, 14] [µg·h/mL] | CL/F [2, 14] [L/h/kg] | Cmax [2, 14] [µg/mL] | T1/2α [2, 14] [h] | Tmax [2, 14] [h] | half-life [2, 14] [h] | weighting coefficient ωj (AUC0−∞ of single analyte / total AUC0−∞ of analytes) [2, 14] | weighting coefficient ωj (AUC0−∞ of single analyte / total AUC0−∞ of analytes) [2, 7] | Tmax [2, 8] [h] | AUC(0-inf) [2, 9] [µg·h/mL] | Cmax [2, 10] [µg/mL] | further results
5 | CC(C)(O)C1CCC(C)(C2C(O)CC3(C)C4CC(OC5OC(CO)C(O)C(O)C5O)C5C(C)(C)C(OC6OCC(O)C(O)C6O)CCC56CC46CCC23C)O1 (stereo not shown) [Astragaloside] | 1.45 | 7.06 | 1.06 | 11.51 | 3.65 | 3.20 | 2.80 | 3.36 | 8.08 |  |  |  |  |  |  |  | 0.269 | 2.8 ± 0.1 | 0.191 | 0.0266 ± 0.004 | bioavailability ([3]; stated as a known characteristic, no reference given): low; CL/F [2, 11]: 49.9 L/h/kg; half-life [2, 12]: 2.06 ± 0.04 h; T1/2α ([2]; rats, oral 10 mg/kg mix standard in 0.5% CMC-Na, n = 6, Mean ± S.D.): 1.98 ± 0.11 h
6 | COc1ccc(-c2coc3cc(O)ccc3c2=O)cc1 [Formononetin] | 2.82 | 2.35 | 2.33 | 10.58 | 10.06 | 7.09 | 6.22 | 5.96 | 7.75 |  |  |  |  |  |  |  | 0.159 | 1.65 | 0.113 | 0.0139 ± 0.0042 | CL/F [2, 11]: 91.9 L/h/kg; half-life [2, 12]: 4.1 ± 2.6 h; T1/2α [2, 13]: 1.77 ± 0.81 h; Tmax [2, 13]: 1.6 ± 0.9 h; T1/2α ([2]; rats, oral 10 mg/kg mix standard in 0.5% CMC-Na, n = 6, Mean ± S.D., listed as formononetin, 10 mg/kg): 1.77 h

Source: paper PMC6154636, “Using UPLC-MS/MS for Characterization of Active Components in Extracts of Yupingfeng and Application to a Comparative Pharmacokinetic Study in Rat Plasma after Oral Administration” (Molecules : A Journal of Synthetic Chemistry and Natural …, 2017)
